Values quoted from earlier work as cited in US4130647A, “Methods for treating congestive heart failure and ischemic heart disease” (priority 1977, dated 1978).

Tested on: patients with congestive heart failure
Details: cited from earlier work

SMILES | left ventricular filling pressures (heart failure) | side effects (in vivo) | Pulmonary Wedge Pressure (left ventricular failure) | right atrial pressure and forearm veins (left ventricular failure) | cardiac output (when left ventricular filling pressures fall below the upper limits of normal)
NNc1nncc2ccccc12 [hydralazine] | does not usually lower left ventricular filling pressures | serologic side effects and leading to sodium retention | only slightly reduces pulmonary wedge pressure | does not reduce right atrial pressure or dilate forearm veins | –
O=[N+]([O-])OCC(CO[N+](=O)[O-])O[N+](=O)[O-] [nitroglycerin] | – | – | – | – | A similar phenomenon is observed
